Results on 8 compounds are retold here after patent US20130210804A1, “TRICYCLIC MGLUR5 RECEPTOR MODULATORS” (priority 2010, published 2013).

This test has as its target T1, human mGluR5A (Homo sapiens, UniProt P41594).
T1 construct: expressed in transfected cells; host or cells: CHO (Chinese Hamster Ovary) cells, kept under Puromycin and Zeocin selection
Nature of the test: Fluorescent Ca2+ mobilization (FLIPR) assay, potentiation of a sub-threshold (EC20, 300 nM) glutamate response. The format is cell-based. The note with it: CHO cells expressing human mGluR5A, potentiation in the presence of 300 nM glutamate. The source says:
The utility of the compounds in accordance with the present invention as positive allosteric modulators of metabotropic glutamate receptor activity, in particular mGluR5 activity, may be readily determined without undue experimentation by methodology well known in the art, including O'Brien et al., Molecular Pharmacology 2003, 64(3) 731-740. In particular, the compounds of the following examples had activity in reference assays by enhancing mGluR5 activity. […] Changes in intracellular Ca^2+ were measured with Fluo-4AM ester (Invitrogen/Molecular Probes), which was detected on a Fluorometric Imaging Plate Reader (FLIPR, Molecular Devices, Sunnyvale, Calif.). In a typical experiment the mGluR5 positive allosteric modulatory activity of the compounds of the present invention was determined in accordance with the following experimental method.
Chinese Hamster Ovary (CHO) cells expressing human mGluR5A were maintained in growth medium containing DMEM, 10% dialyzed Fetal Bovine Serum, 50 units/mL Penicillin, 50 ug/mL Streptomycin, 2 mM L-glutamine, 1×MEM non-essential amino acids, 1 mM sodium pyruvate, 25 mM HEPES, 55 uM 2-mercaptoethanol, 5 ug/mL Puromycin, and 250 ug/mL Zeocin at 37° C. and 5% CO2. The day before the experiment, the cells were washed and seeded in “plating media” containing only DMEM, 10% dialyzed Fetal Bovine Serum, 50 units/mL Penicillin, and 50 ug/mL Streptomycin at a density of 50,000 cells/well (100 uL/well) in black 384-well clear-bottom PDL-coated plates. The cells were grown overnight at 37° C. and 6% CO2. This overnight glutamine/glutamate starvation allowed for consistent expression of the mGluR5A receptor, and the ability to add a known amount of agonist (glutamate in most cases) on the day of the experiment.
The day of the experiment, the cells were washed with 37° C. Assay Buffer (Hanks Balanced Salt Solution with CaCl2 and MgCl2, 20 mM HEPES, 2.5 mM Probenecid, 0.1% BSA) with an automated plate washer (3×100 uL, aspiration 3 mm from bottom leaving ˜30 uL of buffer in each well). After washing, 30 uL of dye loading buffer (4 uM Fluo-4AM, 0.04% Pluronic acid, and 1% dialyzed FBS in assay buffer) were added to each well of the plates for 2 uM Fluo-4AM final concentration. The plates were incubated at 37° C. and 6% CO2 for 1 hour to allow for dye loading. After dye loading, the cells were washed again as above, and placed on the FLIPR. Assays were conducted with two possible scenarios: 1) To determine the potencies of the compounds, as either agonists of mGluR5 or potentiators of mGluR5 in the presence of a sub-threshold amount of glutamate, 10-point titrations of the compounds (1:3 dilution between each point, 30-0.0015 uM final concentrations) were added to the cells, followed by the addition of the EC20 of glutamate (300 nM) to the cells. 2) To determine the cooperativity of the compounds with the natural agonist (glutamate), single concentrations of the compounds were added to the cells, followed by the addition of a 10-point titration of glutamate (1:3 dilution between each point, 1000-0.05 uM final concentrations). […] For both scenarios above, operation of the FLIPR was the same. Baseline fluorescence was monitored for 10 seconds, followed by the addition of compounds diluted in Assay Buffer (1% DMSO concentration after this addition, 0.66% final DMSO concentration after agonist addition). After monitoring fluorescence for 5 minutes, during which time any intrinsic agonist activity of the compounds would have been detected, the agonist (glutamate) also diluted in assay buffer was then added to the cells. The response was then monitored for an additional 3 minutes. In scenario #1, the peak during the final 3 minutes was used for potentiator data, and the peak during the 5 minutes post compound addition was used for compound agonist data. […]
Background: Calcium flux is commonly read through the fluorescence of an indicator in the cells.

[1] abbreviates: about/generally, read-out: EC50 for potentiating/enhancing the mGluR5 receptor in the FLIPR assay.
[2] abbreviates: inflection points, read-out: Representative FLIPR EC50 Values.

The structures appear in SMILES notation. Read-outs that look alike come from different tables or passages of the source.

T1 sequence (P41594 21-1180 isoform P41594-2 limits assumed): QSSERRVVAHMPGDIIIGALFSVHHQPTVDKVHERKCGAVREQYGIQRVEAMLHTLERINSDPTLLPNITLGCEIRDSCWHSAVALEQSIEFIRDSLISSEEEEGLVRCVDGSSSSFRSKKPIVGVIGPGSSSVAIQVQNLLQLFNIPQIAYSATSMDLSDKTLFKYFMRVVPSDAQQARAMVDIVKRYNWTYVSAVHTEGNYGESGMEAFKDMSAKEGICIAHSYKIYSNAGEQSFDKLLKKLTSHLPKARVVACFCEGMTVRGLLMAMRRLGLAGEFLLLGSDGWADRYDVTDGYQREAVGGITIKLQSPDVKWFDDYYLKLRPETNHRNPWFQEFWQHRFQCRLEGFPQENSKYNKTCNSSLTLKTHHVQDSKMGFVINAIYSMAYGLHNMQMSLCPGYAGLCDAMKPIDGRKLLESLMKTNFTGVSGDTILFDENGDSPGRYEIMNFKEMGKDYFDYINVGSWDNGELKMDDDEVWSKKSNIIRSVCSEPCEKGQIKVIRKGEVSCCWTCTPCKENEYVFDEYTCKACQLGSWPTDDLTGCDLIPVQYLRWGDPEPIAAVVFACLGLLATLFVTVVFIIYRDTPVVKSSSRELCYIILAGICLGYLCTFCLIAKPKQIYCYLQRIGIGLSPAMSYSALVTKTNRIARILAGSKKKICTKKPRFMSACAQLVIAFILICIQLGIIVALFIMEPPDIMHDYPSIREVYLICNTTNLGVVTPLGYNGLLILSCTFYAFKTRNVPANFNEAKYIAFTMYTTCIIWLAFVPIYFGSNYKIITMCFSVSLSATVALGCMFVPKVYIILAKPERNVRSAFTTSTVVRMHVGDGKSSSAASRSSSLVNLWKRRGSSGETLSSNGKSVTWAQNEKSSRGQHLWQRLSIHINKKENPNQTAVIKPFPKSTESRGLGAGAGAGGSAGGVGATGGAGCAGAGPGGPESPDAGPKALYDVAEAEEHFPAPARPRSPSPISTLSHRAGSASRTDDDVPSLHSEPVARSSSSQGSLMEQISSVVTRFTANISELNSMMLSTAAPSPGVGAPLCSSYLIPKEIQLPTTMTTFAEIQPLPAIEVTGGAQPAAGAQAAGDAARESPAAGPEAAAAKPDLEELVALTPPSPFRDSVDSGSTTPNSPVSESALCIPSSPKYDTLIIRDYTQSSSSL

For the compound `O=C1c2ccc(F)cc2CC[C@@H]2CC[C@H](c3nc(-c4cc(Cl)c[nH]4)no3)CN12` [Example 3-1, (3S,12aS)-9-Fluoro-3-[3-(4-chloro1H-pyrrol-2-yl)-1,2,4-oxadiazol-5-yl]-1,3,4,11,12,12a-hexahydropyrido[1,2-b][2]benzazepin-6(2H)-one], the EC50 reads like this: under setting [1], less than 1000 nM; under setting [2], 8 nM.

In the case of `O=C1c2cnc(F)cc2CC[C@@H]2CC[C@H](c3noc(-c4ccc(F)cn4)n3)CN12` (single isomer, unassigned) [Example 24-6], the EC50 under setting [1] was less than 1000 nM.

Take `Cc1c[nH]c(-c2noc(C3CCC4C=Cc5ccccc5C(=O)N4C3)n2)c1` (racemic) [Example 7-7, (±) cis-(Z)-3-[3-(4-methyl-1H-pyrrol-2-yl)-1,2,4-oxadiazol-5-yl]-1,3,4,12a-tetrahydropyrido[1,2-b][2]benzazepin-6(2H)-one]: the EC50 is, setting by setting: under setting [1], less than 1000 nM; under setting [2], 31 nM.

Take `N#Cc1ccc2c(c1)CCC1CCC(c3nc(-c4cc(Cl)c[nH]4)no3)CN1C2=O` (racemic) [Example 18-1, (±) cis-9-cyano-3-[3-(4-chloro1H-pyrrol-2-yl)-1,2,4-oxadiazol-5-yl]-1,3,4,11,12,12a-hexahydropyrido[1,2-b][2]benzazepin-6(2H)-one]: the EC50 runs as follows: under setting [1], less than 1000 nM; under setting [2], 50 nM.

For the compound `Cc1c[nH]c(-c2noc([C@H]3CC[C@H]4CCc5ccccc5C(=O)N4C3)n2)c1` [Example 1-5, cis-(3S,12aS)-3-(3-(4-Methyl-1H-pyrrol-2-yl)-1,2,4-oxadiazol-5-yl)-1,3,4,11,12,12a-hexahydrobenzo[e]pyrido[1,2-a]azepin-6(2H)-one], the EC50 is, setting by setting: under setting [1], less than 1000 nM; under setting [2], 16 nM.

For `O=C1c2ccc(F)cc2C(F)(F)C[C@@H]2CC[C@H](c3nc(-c4ccc(F)cn4)no3)CN12` (racemic) [Example 20-3, (±) cis-9,11,11-trifluoro-3-[3-(5-fluoropuridin-2-yl)-1,2-4-oxadiazol-5-yl]-1,3,4,11,12,12a-hexahydropyrido[1,2-b][2]benzazepin-6(2H)-one], under setting [1], the EC50 is less than 1000 nM.

For `O=C1c2ccccc2OC[C@@H]2CC[C@H](c3nc(-c4cc(Cl)c[nH]4)no3)CN12` [Example 11-8, (6aS,9S)-9-[3-(4-chloro-1H-pyrrol-2-yl)-1,2,4-oxadiazol-5-yl]-6,6a,7,8,9,10-hexahydro-12H-pyrido[2,1-c][1,4]benzoxazepin-12-one], the EC50 is, setting by setting: under setting [1], less than 1000 nM; under setting [2], 71 nM.

`COc1ccc2c(n1)CC[C@@H]1CC[C@H](c3nc(-c4cc(Cl)c[nH]4)no3)CN1C2=O` [Example 13-2, (8S,10aS)-8-[3-(4-chloro-1H-pyrrol-2-yl)-1,2,4-oxadiazol-5-yl]-2-methoxy-8,9,10,10a,11,12-hexahydrodipyrido[1,2-a:2′,3′-e]azepin-5(7H)-one]: the EC50 under setting [1] is less than 1000 nM.
